Data published in PubChem BioAssay AID179 (DTP/NCI, 2004).
Calls of active or inactive are those of the source.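 Rule for the calls: active = compounds giving half or more protection of infected cells from virus-caused growth loss, again on retest; inactive = the rest.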

System: CEM cells HIV-1 protection, formazan growth assay
Assay: NCI AIDS Antiviral Assay
Conditions: for IC50: measured here: growth of uninfected CEM cells
Outline: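 Human CEM cells, uninfected and HIV-1-infected, exposed to five drug concentrations; growth measured by soluble formazan assay and scored as percent protection from infection, with protecting compounds retested.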

Row | Structure (SMILES) | EC50 [µM] | IC50 [µM] | outcome
1 | COc1cccc(Oc2c(O)c3ccc(OC)cc3oc2=O)c1 | > 200 | 141 | –
2 | CCN(CCCl)c1cc(C(=O)Nc2cc(NC(=O)c3cc(N(CC)CCCl)c([N+](=O)[O-])cc3[N+](=O)[O-])cc(C(=O)NCCN(C)C)c2)c([N+](=O)[O-])cc1[N+](=O)[O-] | > 200 | 126 | –
3 | COc1ccc2c(c1)c(=O)c(C(=O)O)cn2CCCOc1ccc([N+](=O)[O-])cc1 | – | – | inactive
4 | CCOC(=O)/C(=C\c1cccc(C#N)c1)[Se]c1ccccc1 | > 52.5 | > 52.5 | –
5 | c1ccc(-c2sc(-c3ccccc3)c3c2C(c2ccccc2)c2c(-c4ccccc4)sc(-c4ccccc4)c2C3c2ccccc2)cc1 (configuration not stated) | – | – | inactive
6 | N#C/C(=C\c1ccc(-c2ccccc2)cc1)C(=O)c1ccccc1 | > 83.2 | 27.5 | –
7 | O=C(/C=C(\O)c1ccc(Cl)cc1)C(=O)NN=C(c1ccccc1)c1ccccc1 | > 200 | 16.6 | –
8 | COc1ccc(NC(C)=O)cc1N1C(=O)/C(=C\c2cccc(Oc3ccccc3)c2)SC1c1ccccc1 (configuration not stated) | > 200 | 18.6 | –
9 | Cc1cccc(C(C)C)c1NC(=O)C(=O)CC(=O)c1c(C)n([O-])c2ccccc2[n+]1=O | > 85.1 | 17 | –
10 | O/N=C/c1cc(I)cc(I)c1O | > 66.1 | 33.9 | –
11 | c1cc2c(c(CC3CO3)c1CC1CO1)OCCOCCOCCOCCO2 (configuration not stated) | > 661 | 1.38 | –
12 | Cc1ccc(N=NC2Sc3nc4ccccc4n3C2=O)cc1 (configuration not stated) | > 200 | > 200 | –
13 | CCOC(=O)C1(C(=O)OCC)C[C@]23OCCC(=O)[C@H]2[C@H]2C(=O)OC(C)(C)O[C@]23C1 | > 200 | > 200 | –
14 | CC12CC3CC(C)(C1)CC(CN=C(N)CS)(C3)C2 | > 200 | 31.6 | –
15 | Cc1ccc([B-]23OCC[N+]2(CNC(=O)C2=C(O)C4(O)C(=O)C5=C(O)c6c(O)cccc6C(C)(O)C5CC4C(N(C)C)C2=O)CCO3)cc1 (configuration not stated) | > 53.7 | > 53.7 | –
16 | COc1cc2c(cc1OC)CC(N=[N+]=[N-])c1cc(OC)c(OC)cc1/C=C\2 (configuration not stated) | > 200 | 70.8 | –
17 | O=C(Cc1ccccc1)NN1C(=O)C(Cl)C1c1ccc(Cl)cc1 (configuration not stated) | > 102 | > 102 | –
18 | c1ccc2c(c1)CCc1c-2n(CCN2CCOCC2)c2ccccc12 | > 200 | > 200 | –
19 | Cc1ccc(NCCCN2CCN(CCCNc3ccc(C)c4sc5ccccc5c(=O)c34)CC2)c2c(=O)c3ccccc3sc12 | > 100 | > 100 | –
20 | COc1ccc(N2NC(c3ccccc3)(c3ccccc3)C(C)C2=O)cc1 (configuration not stated) | > 200 | 11 | –
21 | Cn1c(=O)c(C2c3ccccc3Oc3c2c(=O)n(C)c2ccccc32)c(O)c2ccccc21 (configuration not stated) | > 16.6 | > 16.6 | –
22 | CSc1ccccc1NC1=NCCO1 | > 200 | > 200 | –

Row | Structure (SMILES) | EC50 [µM] | IC50 [µM] | outcome
23 | Cc1cn(C2CC(NC(=O)N(C)O)C(CO[Si](C)(C)C(C)(C)C)O2)c(=O)[nH]c1=O (configuration not stated) | > 200 | 107 | –
24 | COc1ccc(OC)c2c3c([nH]c12)C(=O)Nc1nc(N)nc(N)c1C3 | > 20 | 1 | –
25 | CCCCCCCCCCCC(=O)OCCNC(=O)C[n+]1ccccc1 | > 200 | > 200 | –
26 | C/C(CCO)=N\NC(N)=S | > 200 | > 200 | –
27 | COc1ccc(C2ON(c3ccccc3)CC=C2C)cc1 (configuration not stated) | > 35.5 | > 35.5 | –
28 | c1ccc(-c2nc3n(n2)CCC(c2ccccc2)S3)cc1 (configuration not stated) | 45.7 | > 200 | –
29 | CC1(CCCO)CCCCCC(C)(CCCO)C1=O (configuration not stated) | > 200 | 97.7 | –
30 | S=C1CCCCCN1 | > 1950 | 1020 | –
31 | CCCCC(=O)N1SC(NC(=O)OC)=Nc2ccccc21 | > 309 | 6.76 | –
32 | Cc1ccccc1OCC1COC(c2ccc(Cl)cc2)O1 (configuration not stated) | > 200 | > 200 | –
33 | Cc1cc(C)c(C2=NO[C@H]3c4ccccc4OC[C@@H]23)c(C)c1 | > 24.5 | > 24.5 | –
34 | CCOC(=O)Cn1sc2ncc([N+](=O)[O-])cc2c1=O | > 13.5 | 8.91 | –
35 | O=C1CC2C3CC1C2C(=O)O3 (configuration not stated) | > 200 | > 200 | –
36 | Cc1cn(C2CC(N=[N+]=[N-])C(COC(=O)CCCCCCCCCCCN=[N+]=[N-])O2)c(=O)[nH]c1=O (configuration not stated) | 0.0372 | 182 | –
37 | CCCCCCCCCCCCCCCCCCC(C(=O)O)C(=O)O | > 708 | 347 | –
38 | COc1ccc(C2SC(N)=Nc3c2c(C)nn3C(=O)Cc2ccccc2)cc1 (configuration not stated) | 91.2 | 355 | –
39 | Cc1cc(C)c(C(=O)C(C)C(c2ccccc2)c2ccc(Cl)cc2)c(C)c1 (configuration not stated) | > 26.3 | > 26.3 | –
40 | Cc1noc2nccnc12 | > 186 | > 186 | –
41 | Nc1[nH]c(=O)[nH]c(=O)c1N=O | > 200 | > 200 | –
42 | CC(=O)C(=Cc1cccc(Cl)c1)C(C)=O | > 162 | 26.3 | –
43 | O=C1c2ccccc2CC12Cc1cc3c(cc1C2)CCC3 | > 200 | > 200 | –
44 | Cc1nc(N)nc(N)c1CCCCc1ccccc1 | – | – | inactive

Row | Structure (SMILES) | EC50 [µM] | IC50 [µM] | outcome
45 | COC(=O)c1cc(C(=C(Cl)Cl)c2cc(C(=O)OC)c(OC)c(Br)c2C)c(C)c(Br)c1OC | > 200 | 79.4 | –
46 | CSCCC1OCC2OC(n3ccc(=O)[nH]c3=O)CC2N1O (configuration not stated) | > 200 | > 200 | –
47 | CCC12C=CCN3CC[C@]4(C(=C(C(=O)OC)[C@@H]1Nc1ncnc5c1ncn5C1OC(COC(C)=O)C(OC(C)=O)C1OC(C)=O)Nc1ccccc14)C32 (some centres not stated) | > 13.8 | 7.76 | –
48 | CN1CCN(c2ccc(-n3cc(C(=O)O)c(=O)c4cc(F)c(N5CCN(C)CC5)cc43)nc2)CC1 | > 200 | 115 | –
49 | CC1C2CCC3(CCC4C5(C)CCCC4(CN(CCO)C5)C3C2)C1O (configuration not stated) | – | – | inactive
50 | O=S(=O)(NC1OCCCC1I)c1ccccc1 (configuration not stated) | > 200 | > 200 | –
51 | Cc1cc(N(CCC#N)S(=O)(=O)c2ccccc2)ccc1C=O | > 110 | > 110 | –
52 | CC(=O)OC1CCC2C3CCC4(C)C(=O)CCC4C3C3OC23C1 (configuration not stated) | > 282 | 209 | –
53 | CN(C)C1=Nc2ccccc2C(=S)N2CSCC12 (configuration not stated) | > 200 | 29.5 | –
54 | O=C(c1ccccc1)C1C(c2ccccc2)N1S(=O)(=O)c1ccccc1 (configuration not stated) | > 20 | 3.02 | –
55 | N#CC(C#N)=C1CCN2CCCc3cccc1c32 | > 200 | 129 | –
56 | O=c1[nH]c(NCc2ccc(Cl)cc2)nc2nc[nH]c12 | > 200 | 55 | –
57 | O=[N+]([O-])c1ccc2oc(=Nc3ccccc3)c(Nc3ccccc3)nc2c1 | > 200 | 166 | –
58 | O=[N+]([O-])c1cc([N+](=O)[O-])c(C(Cl)C(Cl)c2ccccc2)cc1C(Cl)C(Cl)c1ccccc1 (configuration not stated) | > 5.25 | > 5.25 | –
59 | CCN(CC)C(=O)N1CCN(C=S)CC1 | > 794 | > 794 | –
60 | OCC(O)c1cc(I)c(Oc2ccc(O)cc2)c(I)c1 (configuration not stated) | > 200 | > 200 | –
61 | Brc1ccc(OCc2ccccc2)c2ccccc12 | > 200 | 63.1 | –
62 | CCOC(=O)C(Oc1ccc(OC)c2c1C(=O)CCC2)c1ccccc1 (configuration not stated) | – | – | inactive
63 | O=C(N/N=C/C=C/c1ccccc1)c1ccncc1 | > 200 | 33.1 | –
64 | N#C/C(=C\NC(=S)C(N)=S)C(=O)c1ccc2ccccc2c1 | > 200 | 58.9 | –
65 | CC(C)(NC1=NCCO1)c1ccccc1 | > 200 | > 200 | –
66 | COC(=O)[C@H](Cc1ccccc1)NC(=O)N(CCNCCNC(=O)OC(C)(C)C)c1ccccc1 | > 200 | > 100 | –

Row | Structure (SMILES) | EC50 [µM] | IC50 [µM] | outcome
67 | Cc1cc([N+](=O)[O-])ccc1Sc1c2ccccc2nc2cc(Cl)ccc12 | > 19.1 | > 19.1 | –
68 | c1ccc(C2OC3(CCC[C@H]4C[C@H]43)O[C@H]2c2ccccc2)cc1 (some centres not stated) | – | – | inactive
69 | O=C1NC(c2cccs2)N2C(=O)NC(c3cccs3)N12 (configuration not stated) | > 200 | 145 | –
70 | N#CCC(=O)N/N=C1/C(=O)N(c2cc(Cl)ccc2Cl)C(=O)C(=O)C1c1nc2ccccc2s1 (configuration not stated) | – | – | inactive
71 | Cc1cc(C)n(C(=C(C(Cl)=C(Cl)Cl)[N+](=O)[O-])n2nc(C)cc2C)n1 | > 200 | 4.37 | –
72 | O=C(N/C(=C\c1ccc([N+](=O)[O-])cc1)c1nc2[nH]c(=S)[nH]c(=O)c2[nH]1)c1ccccc1 | – | – | inactive
73 | COc1ccc(C2=C(C#N)C(=O)OCCN2C)cc1 | > 200 | > 200 | –
74 | O=C1/C(=C/c2ccccc2)CCC/C1=C\c1ccccc1 | > 200 | 8.13 | –
75 | O=C1CSC(c2cccc([N+](=O)[O-])c2)N1c1ccc(-n2c(-c3ccccc3)nc3ccccc3c2=O)cc1 (configuration not stated) | > 200 | > 200 | –
76 | COC(=O)[C@H](Cc1c[nH]c2ccccc12)NP(=O)(O)OCC1C=CC(n2cc(C)c(=O)[nH]c2=O)O1 (some centres not stated) | 28.2 | > 200 | –
77 | O=c1[nH]c2cc(Cl)ccc2n1C1CCN(CCCC(c2ccc(F)cc2)c2ccc(F)cc2)CC1 | > 200 | 18.6 | –
78 | Cc1cc(O)c(/C=N/C(=S)Nc2ccccc2)c(=O)o1 | > 200 | > 200 | –
79 | [N-]=[N+]=CC(=O)OC1Cc2ccccc2C1 | 182 | > 200 | –
80 | C(#CC[P+](c1ccccc1)(c1ccccc1)c1ccccc1)C[P+](c1ccccc1)(c1ccccc1)c1ccccc1 | > 200 | 36.3 | –
81 | C/C=C1\Oc2ccc(OC)cc2S1(=O)=O | 17 | 31.6 | –
82 | CN(C)c1ccc(NN=C2SC(=Nc3ccccc3)C(=Nc3ccccc3)S2)cc1 | > 200 | 8.13 | –
83 | COC(=O)CCC1=NOC(CC2CC(CCC(=O)OC)=NO2)C1 (configuration not stated) | – | – | inactive
84 | CCn1c(=N)sc2nc3ccccc3n2c1=O | > 200 | 58.9 | –
85 | CCOC(=O)c1[nH]n(-c2ccccc2)c(=O)c1C=NC(=S)C(N)=S | > 200 | 33.9 | –
86 | COc1cc(C2C(Cl)C(=O)N2NC(=O)c2ccc(N)cc2)ccc1O (configuration not stated) | > 200 | 53.7 | –
87 | O=C(NCCc1c[nH]c2ccccc12)C1CC1 | > 200 | 110 | –
88 | C[N+](C)(C)CC(=O)N/N=C(/Cc1nc2c3c(ccc2[nH]c1=O)C(=O)c1ccccc1C3=O)C(=O)Nc1ccc(Cl)c(Cl)c1 | > 20.9 | > 20.9 | –
